The values that follow are results of earlier work, collected in patent publication US20240316075A1, “METHODS FOR TREATMENT OF PAIN WITH CANNABINOIDS” (ANANDA SCIENTIFIC, INC, priority 2021, published 2024).

For data set [1] the following is noted: rats, oral, 120 mg/kg dose.
For a further data set, the target named is CB2 receptors (Homo sapiens, UniProt P34972).
For data set [2] the following is noted: doses ranging from 10 mg to 6000 mg, single and multiple doses.

Chain of CB2 receptors (P34972 whole entry): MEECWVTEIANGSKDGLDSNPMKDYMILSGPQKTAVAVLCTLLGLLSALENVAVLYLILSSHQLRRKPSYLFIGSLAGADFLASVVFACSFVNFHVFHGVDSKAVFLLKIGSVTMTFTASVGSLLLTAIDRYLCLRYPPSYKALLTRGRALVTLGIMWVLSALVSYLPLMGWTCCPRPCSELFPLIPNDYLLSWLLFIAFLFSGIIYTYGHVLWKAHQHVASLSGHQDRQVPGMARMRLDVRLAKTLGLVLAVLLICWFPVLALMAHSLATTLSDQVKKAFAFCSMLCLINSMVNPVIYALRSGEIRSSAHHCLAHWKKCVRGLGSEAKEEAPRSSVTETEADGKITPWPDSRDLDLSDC

On to `C=C(C)[C@@H]1CCC(C)=C[C@H]1c1c(O)cc(CCCCC)cc1O` [CBD, 2-(1R,6R)-3-methyl-6-prop-1-en-2-ylcyclohex-2-en-1-yl-5-pentylbenzene-1,3-diol], for which, in data set [1], the T½ is 4 to 5 h. Moreover, the “Affinity for CB2 receptors” value on CB2 receptors is reported as “low affinity”. The Safety finding entry in data set [2] was “safe”.
